Laboratory results reported in patent US20150140125A1, “SYNERGISTIC CANCER THERAPY DRUG COMBINATIONS” (Life Plus, LLC, priority 2013, published 2015).
Entries after “also recorded” stand apart in the source; their conditions may differ.

What was measured:
Assay type in all cases: cell-based
[1] = tested on: human alveolar adenocarcinoma cell line (H358)
Text: Pub. […] Cells were pipetted into the mold and allowed 3-5 days to form 3-D clusters, mimicking miniature tumors. The cell clusters were removed from the mold by washing and gentle pipetting. The cell clusters were placed in media containing 0.5% FBS. The clusters were dispensed into 96-well plates at a density of approximately 12-15 clusters per well for testing with the therapeutic composition designated herein as “GZ17” and a known chemotherapeutic agent (doxorubicin, aka adriamycin).
The cell clusters were tested against GZ17 and doxorubicin individually at various dosages, and then against the combination therapeutic containing both agents.
(§1) 96-well cell culture plates were loaded with increasing doses of GZ17 (graph on left) within a row. The doses were each added to 8 rows of each plate for 8 replicates at each dose. Cell clusters were pipetted into each well, and exposed for 24 hours to GZ17. At the completion of 24 hours, the wells were treated with 20 microliters of Prestoblue and allowed to incubate for up to 4 hours. The plates were read at 2-4 different time points after exposure to Prestoblue ranging from 30 minutes to 4 hours. The one-hour time point was the most often used and reported. The plates were loaded into a Perkin Elmer Enspire plate reader and each well was excited at 490 nm and read at 560 nm wavelengths. Relative fluorescence for each well was read.
The chemotherapy classification of paclitaxel (also known as taxol) is a mitotic inhibitor. It works by stabilizing the microtubules. The microtubules are part of the cytoskeleton of the cell. When the cells go into cell division, the microtubules must disassemble so that the cell can divide. However, with paclitaxel, the microtubule polymer can't disassemble, and thus the cells can't divide which triggers apoptosis, or programmed cell death. There are subcategories of drugs in the mitotic inhibitor class including the vinca alkaloids (vincristine and vinblastine) and the colchicines class, podophyllotoxin and griseofulvin. Other drugs that work like paclitaxel are the taxanes and docotaxel.
The study was again repeating using fluorouracil. Fluorouracil is an anti-metabolite chemotherapy. It mimics pyrimidine and incorporates into the DNA and RNA blocking the ability of the cell to divide, and eventually ending in death of the cancer cells. Other drugs in this category include cytarabine and 6-azauracil.
(§2) The powder was reconstituted in deionized water and agitated to ensure substantial homogeneity.

[2] = tested on: human ovarian cancer cell line (A1847); experiment: 3-D ovarian cancer cell cluster viability (Prestoblue fluorescence); conditions: for doses giving a statistically significant decrease in live cells: agent alone; for dose that had to be reached before the agent alone had an effect: ovarian cancer spheroids
Method: as §1
The human ovarian cancer cell line (A1847) was used to create miniature tumors by loading the individual cells in a micromold according to U.S. Pat. App. Pub. […] Cells were pipetted into the mold and allowed 2-3 days to form 3-D clusters, mimicking miniature tumors. Cell clusters were removed from the mold by washing and gentle pipetting. Cell clusters were placed in media containing 0.5% FBS. The clusters were dispensed into 96-well plates at a density of approximately 10-15 clusters per well. […]
as §2

[3] = tested on: human ovarian cancer cell line (A1847); experiment: as above; conditions: paclitaxel alone at 3.16 μM

Compound | effect of the agent alone on lung cancer spheroids ([1]; agent alone) | effect of the agent alone on ovarian cancer clusters [2] | doses giving a statistically significant decrease in live cells [2] | dose that had to be reached before the agent alone had an effect [2] | other results
O=C(O)CCCc1ccc(N(CCCl)CCCl)cc1 [chlorambucil] | no effect | no effect on its own | – | – | –
N.N.[Cl][Pt][Cl] [cisplatin] | – | – | ≥ 31.6 µM | ≥ 10 µM | –
COc1cccc2c1C(=O)c1c(O)c3c(c(O)c1C2=O)C[C@@](O)(C(=O)CO)C[C@@H]3O[C@H]1C[C@H](N)[C@H](O)[C@H](C)O1 [doxorubicin] | – | – | ≥ 0.5 µM | – | relative fluorescence (live cells) with increasing dose ([1]; agent alone, 24 h exposure): fluorescence declined; percent of the cancer cells caused to die ([1]; doxorubicin alone, 1.58 μM, 24 h): 36%; reduction in the number of cells from the baseline ([1]; doxorubicin alone, 0.002 to 0.158 μM): no statistically significant reduction; also recorded: had no effect
O=c1[nH]cc(F)c(=O)[nH]1 [fluorouracil] | – | the dose response was minimal | – | ≥ 3.16 µM | doses giving a significant decrease in cell numbers ([1]; agent alone): ≥ 1.58 µM; dose that had to be reached before the agent alone had more than little effect ([1]; agent alone, lung cancer spheroids): ≥ 1.58 µM
CN(Cc1cnc2nc(N)nc(N)c2n1)c1ccc(C(=O)N[C@@H](CCC(=O)O)C(=O)O)cc1 [methotrexate] | no effect alone | – | – | – | –
CC(=O)O[C@H]1C(=O)[C@@]2(C)[C@H]([C@H](OC(=O)c3ccccc3)[C@]3(O)C[C@H](OC(=O)[C@H](O)[C@@H](NC(=O)c4ccccc4)c4ccccc4)C(C)=C1C3(C)C)[C@]1(OC(C)=O)CO[C@@H]1C[C@@H]2O [paclitaxel] | – | – | 0.01 µM | ≥ 31.6 µM | dose at which the number of live cells is reduced (other doses not significant) ([1]; paclitaxel alone): 5 µM; effect on cancer cell death [3]: no effect on cancer cell death
